Measured values published in PMC10787225 (Computational and Structural Biotechnology Journal, 2023).
Entries after “also recorded” stand apart in the source; their conditions may differ. Where no end group is shown, it is not given here.

Tests used:
β-wrapin AS10 [1] = conditions: cited from earlier work
Source text: We have previously observed β-hairpins in amyloid-β (Aβ), α-synuclein (αSyn), and islet amyloid polypeptide (IAPP), amyloidogenic proteins associated with AD, PD, and T2D, respectively (Fig. 2), [38], [39]. These β-hairpins are established upon binding to engineered binding proteins termed β-wrapins. β-Wrapins are selected from protein libraries based on ZAβ3, an affibody with high affinity for monomeric Aβ [37], [39], [40], [41], [42]. β-Hairpin structures of Aβ, αSyn and IAPP have been determined by NMR spectroscopy of their complexes with ZAβ3 and the β-wrapins AS69 and ...

[2] = Thioflavin T (ThT) aggregation assay; assay type: physicochemical
Protocol: All ThT aggregation assays were done in Greiner 96-well half-area, clear bottom, low-binding plates. The measurements themselves were done in a BMG CLARIOstar plate reader at 37 °C and 300 rpm shaking in orbital mode with one glass bead (0.75–1 mm, Roth) per well. Wells with samples were always surrounded by wells filled with liquid, either other samples or 150 μl water, to counter potential artefacts due to evaporation. […] Final concentrations of 25 µM ThT and 0.04% sodium azide (NaN3) were added. The plate was sealed with sealing tape and put into the plate reader, heated to 37 °C, and ThT fluorescence was read in 1000 cycles of 300 s each using bottom optics with excitation at 448 nm (10 nm bandwidth) and emission at 482 nm (10 nm bandwidth). […] Samples contained 40 µM ThT and 0.04% NaN3.
Fig. 4 Test set of eight protein segments. (A) List of the investigated peptides. Underlined stretches in the peptide sequences correspond to the predicted amyloidogenic β-hairpins. A peptide was considered ‘soluble’ when no visible precipitation occurred upon dissolution of the lyophilized peptide in 20 mM NaPi, pH 7.4, 50 mM NaCl, to a final concentration of 20 µM. […] (B) Conformations of investigated segments (red) in the context of their source proteins.

β-wrapin AS10 [3] = assay: Isothermal titration calorimetry (ITC) of peptide binding to AS10; conditions: 30 °C, 30 µM AS10 in cell, peptide titrated from syringe, 20 mM sodium phosphate, pH 7.4, 50 mM NaCl, 1:1 binding model, read-out: Affinity to AS10 (dissociation constant KD)
Protocol: ITC was performed at 30 °C using a Microcal iTC200 calorimeter (GE Healthcare). AS10 was filled into the cell at a concentration of 30 µM in 20 mM sodium phosphate, pH 7.4, 50 mM NaCl. Peptides were titrated from the syringe in approximately 10-fold higher concentrations. Heats of post-saturation injections were averaged and subtracted from each injection to correct for heats of dilution and mixing. Dissociation constants were obtained from a nonlinear least-squares fit to a 1:1 binding model using MicroCal Origin.

[4] = Atomic force microscopy (AFM) of samples at the end of ThT aggregation assays; assay type: physicochemical
Protocol: (§1) For AFM imaging, 2 μl samples were taken out of the wells at the end of the ThT aggregation assays, put onto a freshly cleaved muscovite mica surface and dried during incubation for 10 min under the clean bench. Subsequently, the samples were washed with 100 μl ddH2O in three steps and dried with a stream of N2 gas. Imaging was performed in intermittent contact mode (AC mode) in a JPK NanoWizard 3 atomic force microscope using a silicon cantilever with silicon tip (OMCL-AC160TS-R3, Olympus) with a typical tip radius of 9 ± 2 nm, a force constant of 26 N/m and resonance frequency around 300 kHz. The images were processed using JPK DP Data Processing Software (version spm-5.0.84).

PAP(248−286) = assay: ThT aggregation assay and AFM of PAP(248−286) in presence of added peptide; assay type: biochemical, human
Protocol: (§2) All ThT aggregation assays were done in Greiner 96-well half-area, clear bottom, low-binding plates. The measurements themselves were done in a BMG CLARIOstar plate reader at 37 °C and 300 rpm shaking in orbital mode with one glass bead (0.75–1 mm, Roth) per well. Wells with samples were always surrounded by wells filled with liquid, either other samples or 150 μl water, to counter potential artefacts due to evaporation. […] Final concentrations of 25 µM ThT and 0.04% sodium azide (NaN3) were added. The plate was sealed with sealing tape and put into the plate reader, heated to 37 °C, and ThT fluorescence was read in 1000 cycles of 300 s each using bottom optics with excitation at 448 nm (10 nm bandwidth) and emission at 482 nm (10 nm bandwidth). […] PAP(248−286) and SEM1(86−107) were kept at constant concentrations of 500 and 300 µM, respectively. […] Samples contained 40 µM ThT and 0.04% NaN3.
as §1

SEM1(86−107) = assay: ThT aggregation assay and AFM of SEM1(86−107) in presence of added peptide; assay type: biochemical, human
Protocol: as §2, §1

| Substance | Affinity for β-wrapin AS10 (β-wrapin AS10 [1]) | ThT fluorescence time course ([2]; 20–25 µM peptide, 20 mM NaPi, pH 7.4, 50 mM NaCl, 37 °C, 25 µM ThT, triplicate) | Peptide concentration sufficient for amyloid formation ([2]; ThT assay, Fig. 5D (550 µM, 20 mM NaPi, pH 7.4, 50 mM NaCl)) [mM] | ThT ([2]; peptide 20–550 µM, up to 85 h, 20 mM NaPi, pH 7.4, 50 mM NaCl, 37 °C, 300 rpm, glass bead, 25 µM ThT, triplicate) | ThT fluorescence of peptide alone ([2]; peptide alone 25–100 µM (up to 100 µM), 50 mM Tris, pH 8.5, 37 °C, 40 µM ThT) | ThT fluorescence time course ([2]; peptide increased to 500–550 µM, 20 mM NaPi, pH 7.4, 50 mM NaCl, 37 °C, 25 µM ThT, triplicate) | Kd (β-wrapin AS10 [3]) [µM] | AFM aggregate morphology ([4]; end of ThT aggregation assay in 20 mM NaPi, pH 7.4, 50 mM NaCl, dried on mica) | AFM aggregate morphology of individual peptide ([4]; end of ThT assay at moderate peptide concentrations without ThT fluorescence, 50 mM Tris, pH 8.5) | Effect of added peptide on ThT time trace of PAP(248−286) (PAP(248−286); 500 µM PAP(248−286), added peptide 25–100 µM, 50 mM Tris, pH 8.5, 37 °C, 40 µM ThT) | AFM morphology after co-incubation with PAP(248−286) (PAP(248−286); AFM at end of aggregation assay, 500 µM PAP(248−286) with PAP(185−208)) | Effect of added peptide on ThT time trace of SEM1(86−107) (SEM1(86−107); 300 µM SEM1(86−107), added peptide 25–100 µM, 50 mM Tris, pH 8.5, 37 °C, 40 µM ThT) | AFM morphology after co-incubation with SEM1(86−107) (SEM1(86−107); AFM at end of aggregation assay, 300 µM SEM1(86−107) with PAP(185−208)) |
| --- | --- | --- | --- | --- | --- | --- | --- | --- | --- | --- | --- | --- | --- |
| Aβ: amyloid-β, amyloidogenic protein associated with AD | sub-micromolar |  |  |  |  |  |  |  |  |  |  |  |  |
| IAPP: islet amyloid polypeptide, amyloidogenic protein associated with T2D (KCNTATCATQRLANFLVHSSNNFGAILSSTNVGSNTY; Islet amyloid polypeptide; UniProt P10997 34-70, looked up) | sub-micromolar |  |  |  |  |  |  |  |  |  |  |  |  |
| KDFIATLGKLSGLHGQDLFGIWSK [PAP(185−208)] |  | no increase in fluorescence intensity was detected | > 0.5 | + | did not exhibit ThT fluorescence; also recorded: do not exhibit ThT fluorescene | exhibited ThT fluorescence | 39 ± 5 | fibrillar aggregates confirming amyloid formation were detected | aggregates of amorphous shape | ThT time traces featuring a lag-time and a phase of rapid growth indicative of amyloid formation | shift to fibrillar aggregate morphology | ThT time traces featuring a lag-time and a phase of rapid growth indicative of amyloid formation | shift to fibrillar aggregate morphology |
